This is an account of results in patent publication US20260200999A1, “SYNTHETIC TRANSCRIPTION FACTORS” (ETH ZURICH, priority 2022, published 2026).

The conditions of series [1]: upon ingestion; cited from earlier work.
The target in series [2] is FRB and FKBP dimerization (Homo sapiens, UniProt P42345+P62942, T2098L). To be noted: previously reported A/C-inducible FRB and FKBP systems [31], [33]; cited from earlier work.
Series [3] deals with T1, FKBP (SEQ ID NO: 142) and FRBT2098L (SEQ ID NO: 140) heterodimerization (Homo sapiens, UniProt P42345+P62942+Q04206, T2098L).
T1 construct: expressed in transfected cells; host or cells: HEK293
Nature of the series: A/C heterodimerizer-inducible HumTAP gene expression system in HEK293 cells. In kind it is cell-based. The source says:
One well-characterized small-molecule based dimerization system is based on the rapamycin analog A/C (C16-(S)-7-methylindolerapamycin) that induces heterodimerization between the human proteins FK506-binding protein 12 (FKBP; SEQ ID NO: 142) and the FKBP12-rapamycin binding domain (FRB) mutant FRBT2098L (SEQ ID NO: 140), [31]. To achieve A/C heterodimerizer-inducible gene expression, the inventors fused FKBP (SEQ ID NO: 142) to the N-terminus of MTERF158-399 (SEQ ID NO: 1) and FRB (SEQ ID NO: 140) to the C-terminus of different transactivation domains (FIG. 10A). […] In accordance with the results described above, chimeric transactivation domains mediated higher maximal output expression levels than RelA430-551.
The inventors reasoned that in the present system, dimerization might be hindered by either FRB's or FKBP's fusion partner and investigated whether the addition of linkers between the protein domains might impact the EC50 value (FIG. 10 D). A combination of the cMyc nuclear localization signal (NLS) (SEQ ID NO: 122) linking MTERF158-399 and FKBP, and the rigid linker AP6 (SEQ ID NO: 120) linking FRB and RelA430-551 led to a reduction in EC50 to ~60 nM while also increasing maximal output ~3-fold over the variant without linkers and RelA430-551 as TAD (FIG. 10 D).

Series [4] deals with T2, MTF (MTERF1 58-399::RelA 430-551) (Homo sapiens, UniProt Q99551 SEQ:2-343).
T2 chain: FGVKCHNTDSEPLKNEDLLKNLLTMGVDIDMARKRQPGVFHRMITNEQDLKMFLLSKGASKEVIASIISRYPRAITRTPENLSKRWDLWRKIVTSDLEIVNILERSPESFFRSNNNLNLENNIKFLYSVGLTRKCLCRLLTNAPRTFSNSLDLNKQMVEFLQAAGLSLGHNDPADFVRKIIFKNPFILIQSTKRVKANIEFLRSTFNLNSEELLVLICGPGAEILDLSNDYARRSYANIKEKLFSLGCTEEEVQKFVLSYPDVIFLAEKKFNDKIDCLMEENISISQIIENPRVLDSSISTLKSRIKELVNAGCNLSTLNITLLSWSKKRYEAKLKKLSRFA
Description: cell_activity; mCitrine, HEK293; none without MTF. The settings on record: tags: RelA 430-551 TAD fusion. The source says: The inventors next sought to facilitate potential future applications and created a collection of promoters with different strengths to match potential future applications' requirements. Randomly picking 20 variants yielded mostly weak promoters. To maximize diversity in size and strength, the inventors chose 19 further promoters based on their high activity score or small genetic size. Altogether, the inventors created a promoter collection spanning a wide range of sizes and strengths (FIG. 15A, B). After co-transfecting each variant either with or without a MTF plasmid amount corresponding to the EC90, and a mCherry transfection control plasmid into HEK293 cells, relative mCitrine levels were measured using flow cytometry. […]

T1 sequence (P62942 with tags, fused parts or gaps, stated change not applied): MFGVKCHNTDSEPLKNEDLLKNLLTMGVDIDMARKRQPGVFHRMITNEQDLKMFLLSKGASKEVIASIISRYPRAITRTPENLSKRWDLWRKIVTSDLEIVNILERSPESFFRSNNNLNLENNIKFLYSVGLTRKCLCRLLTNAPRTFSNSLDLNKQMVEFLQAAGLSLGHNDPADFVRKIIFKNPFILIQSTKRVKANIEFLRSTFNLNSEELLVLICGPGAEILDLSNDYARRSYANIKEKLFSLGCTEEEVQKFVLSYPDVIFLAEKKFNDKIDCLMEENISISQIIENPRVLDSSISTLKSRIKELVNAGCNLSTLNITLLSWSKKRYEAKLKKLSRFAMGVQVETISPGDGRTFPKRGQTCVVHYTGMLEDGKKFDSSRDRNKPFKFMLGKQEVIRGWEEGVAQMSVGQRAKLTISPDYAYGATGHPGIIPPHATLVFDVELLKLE
T1 sequence (P42345+Q04206 fused P42345:T2098L): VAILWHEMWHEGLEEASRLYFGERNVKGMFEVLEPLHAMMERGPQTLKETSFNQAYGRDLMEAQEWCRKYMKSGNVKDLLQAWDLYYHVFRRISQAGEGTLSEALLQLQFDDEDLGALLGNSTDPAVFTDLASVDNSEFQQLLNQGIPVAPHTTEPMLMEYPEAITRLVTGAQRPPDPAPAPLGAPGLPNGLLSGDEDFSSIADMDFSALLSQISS
Chain of FRB and FKBP dimerization (P62942 whole entry): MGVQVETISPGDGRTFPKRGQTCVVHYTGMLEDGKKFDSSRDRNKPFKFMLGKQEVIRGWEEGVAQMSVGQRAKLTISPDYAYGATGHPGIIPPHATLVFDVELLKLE
Chain of FRB and FKBP dimerization (P42345 2012-2144 T2098L): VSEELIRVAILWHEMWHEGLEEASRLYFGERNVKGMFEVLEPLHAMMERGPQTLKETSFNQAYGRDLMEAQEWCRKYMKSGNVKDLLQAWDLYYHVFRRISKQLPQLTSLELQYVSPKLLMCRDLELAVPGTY

Turning to `CO[C@H]1C[C@@H]2CC[C@@H](C)[C@@](O)(O2)C(=O)C(=O)N2CCCC[C@H]2C(=O)O[C@H]([C@H](C)C[C@@H]2CC[C@@H](O)[C@H](OC)C2)CC(=O)[C@H](C)/C=C(\C)[C@@H](O)[C@@H](OC)C(=O)[C@H](C)C[C@H](C)/C=C/C=C/C=C/1C` [rapamycin], in series [1], the physiological blood concentrations is given as ~ 22 nM. The term EC50 denotes the concentration that produces a half-maximal response. In the case of “C16-(S)-7-methylindolerapamycin [A/C heterodimerizer]”, the EC50 in series [2] is ~1 nM; in series [3] (cMyc NLS linking MTERF158-399 and FKBP, AP6 linker linking FRB and RelA430-551, FIG. 10D), ~60 nM. Moreover, in series [3] (HEK cells co-transfected with MTERF158-399::FKBP and FRB fusions to the strongest TADs, FIG. 10C), the “mCerulean levels versus inducer concentration” value was “increased dose-dependently”.

B1: sense-5-8-10 promoter (dsDNA)
DNA 1: TAAGATGGCAGAGCCCGGTAATAGAGTGCGTAAGATGGCAGAGCCCGGTAATAGAGTGCGTAAGATGGCAGAGCCCGGTAATAGAGTGCGTAAGATGGCAGAGCCCGGTAATAGAGTGCGTAAGATGGCAGAGCCCGGTAATGACTCATATGCTCTAGAGGGTATATAATGGGGGCC
DNA 2: GGCCCCCATTATATACCCTCTAGAGCATATGAGTCATTACCGGGCTCTGCCATCTTACGCACTCTATTACCGGGCTCTGCCATCTTACGCACTCTATTACCGGGCTCTGCCATCTTACGCACTCTATTACCGGGCTCTGCCATCTTACGCACTCTATTACCGGGCTCTGCCATCTTA
For B1, in series [4], the binding signal was 2 fold vs sense-5-9-8.
